The results in this text go back to PubChem BioAssay AID2384 (Southern Research Specialized Biocontainment Screening …, 2010).

pIC50: −log10 of the molar value. Where “and” joins values, the source holds several entries; their conditions need not be identical. Equal values may be shown once.

The test system of the assay is S. typhi GFP reporter counter-screen, fluorescence, 4 h. In words: S. typhi counter-screen signal inhibition – fluorescence, 4 h, counter-screen for PhoP regulon inhibitor project, dose response (AID 2384).
Usually pIC50 stands for the IC50 on a negative log10 scale, so that one unit is a factor of ten. Take `CCCCCCCCCCOC(=O)Cn1c(COc2ccc(OC)cc2)[n+](C)c2ccccc21`: the pIC50 was 4.92 and 5.00. For the compound `N=C(N)c1ccc(/C=C/c2ccc(C(=N)N)cc2O)cc1`, the pIC50 is 4.98. As for `COc1cc(/C=C2/C(=O)NN(c3ccc(C)c(Cl)c3)C2=O)cc([N+](=O)[O-])c1O`, the negative logarithm of the IC50 (pIC50) was 4.13. As to `CN1CCN(c2ccc(NC(=O)CSc3ccccc3)cc2F)CC1`, the pIC50 is 3.98.

For `COc1ccccc1Nc1c2ccccc2nc2ccccc12`, the pIC50 is 4.00. As for `C#CCOCCOCCOCCNc1nc(N2CCN(C(=O)[C@H](Cc3cc4ccccc4[nH]3)n3cc([C@@H](N)C(C)CC)nn3)CC2)nc(N2CCN(C(=O)[C@H](Cc3cc4ccccc4[nH]3)n3cc([C@@H](N)CC(C)C)nn3)CC2)n1` (stereo partly drawn), the pIC50 is 4.62. Turning to `CCCCCCCCCC[N+](C)(C)CC/C=C1/c2ccccc2Sc2ccc(Cl)cc21`, the pIC50 was 4.85. For the compound `COc1ccc2c(c1OC)C(=O)N(c1ccc(C)cc1)C2=O`, the pIC50 is 3.98. For `Cc1ccc(Nc2cc(C)c3c(O)cccc3n2)cc1C` the value was 4.93; for `NCCCC[C@H]1CN=C(N)N1CCC12CC3CC(CC(C3)C1)C2`, 4.06. For `Nc1nc2ccccc2n1Cc1ccc(Cl)c(Cl)c1`, the pIC50 is 4.13. As to `c1ccc2c(c1)C(=NC1CCCCC1)NC2=NC1CCCCC1`, the pIC50 was 4.11. As to `NC1=NC[C@@H](Cc2ccc(O)cc2)N1CCc1cc(C(F)(F)F)cc(C(F)(F)F)c1`, the pIC50 is 4.38. Then `CC(C)Oc1ccc(Cc2cnc(N)nc2N)cc1`, with 4.48; and `C#CCOCCOCCOCCNc1nc(N2CCN(C(=O)C(Cc3cc4ccccc4[nH]3)n3cc(C(N)C(C)CC)nn3)CC2)nc(N2CCN(C(=O)C(Cc3cc4ccccc4[nH]3)n3cc(C(N)C(C)CC)nn3)CC2)n1` (stereo not drawn), with 3.87. For the compound `CCSc1ccc2c(c1)N(CCCN1CCN(C)CC1)c1ccccc1S2`, the pIC50 is 4.15. On to `Oc1ccc(CN2CCN(Cc3ccccc3)CC2)c2cccnc12`, for which the pIC50 is 4.59. Then `O=c1c2ccccc2[nH]c2ccccc12`, with 4.21. Regarding `c1ccc(CN2CCC(Nc3nc(-c4cccs4)nc4ccccc34)CC2)cc1`, the pIC50 is 4.43. `CCCCOc1ccc(NC2=NC3(CCCCC3)N=C(N)N2)cc1`: the pIC50 is 4.46. With `CC1CCC(C(C)C)C(OC(=O)Cn2c(-c3ccc(Cl)cc3)[n+](C)c3ccccc32)C1` (stereo not drawn), the pIC50 is 4.42.

For `CCCCc1c(O)nc(SCC(=O)Nc2ccc3c(c2)CCC3)[nH]c1=O`, the negative-log IC50 (pIC50) was 3.95. Turning to `O=C1CSC(=S)N1c1cccnc1`, the pIC50 was 4.10.

Take `CCN1CCN(Cc2ccc(NC(=O)c3ccc(C)c(NC(=O)c4c[nH]c5cc(C(F)(F)F)ccc5c4=O)c3)cc2C(F)(F)F)CC1`: the pIC50 was 4.46. For the compound `CN(C)c1ccc2nc3ccc(=[N+](C)C)cc-3sc2c1`, the pIC50 is 4.34. `COc1ccc(CNCC(O)COc2ccc(C(C)(C)c3ccccc3)cc2)cc1` (stereo not drawn): the pIC50 was 4.69. On to `O=C(CN1CCCC1)Nc1ccc(-c2nc3cc(NC(=O)CN4CCCC4)ccc3o2)cc1`, for which the negative-log IC50 (pIC50) was 4.24.

As for `COc1cc2c(cc1O)[C@H](Cc1ccc(Oc3cc(C[C@@H]4NCCc5cc(OC)c(O)cc54)ccc3O)cc1)NCC2`, the pIC50 was 4.19. With `OCCN1CCN(CCCN2c3ccccc3Sc3ccc(Cl)cc32)CC1`, the pIC50 was 4.13. Then `O=C(CC(=O)c1ccccc1O)c1cccc(F)c1`, with 4.54.

For the compound `C#CCOCCOCCOCCNc1nc(N2CCN(C(=O)CCCCCCCCCCNC(=O)[C@@H](CCSC)n3cc(CCO)nn3)CC2)nc(N2CCN(C(=O)CCCCCCCCCCNC(=O)[C@H]([C@@H](C)CC)n3cc(CCCCN=C(N)N)nn3)CC2)n1`, the pIC50 is 4.08.

`CN1CCN(c2nc(Nc3ccc(F)cc3)nc(Nc3ccc(F)cc3)n2)CC1`: the pIC50 was 4.06. For `NC[C@@H]1O[C@H](C23CC4CC(CC(C4)C2)C3)Cc2c1ccc(O)c2O`, the pIC50 is 4.57. On to `O=S1(=O)CC=C(CSC(=S)NC2CCS(=O)(=O)C2)C1` (stereo not drawn), for which the negative logarithm of the IC50 (pIC50) is 4.41. Then `CSc1ccc2c(c1)N(CCC1CCCCN1C)c1ccccc1S2` (stereo not drawn), with 4.43. With `O=c1c2c([nH]c3ccccc13)CCCCC2`, the negative-log IC50 (pIC50) was 3.95. As for `Cc1c(CCOC(=O)C2C3CC4CC(C3)CC2C4)sc[n+]1CC(=O)c1ccc(Br)cc1` (stereo not drawn), the pIC50 is 4.59.

As for `CCn1cc(C(=O)O)c(=O)c2cc(F)c(N3CCN(C(=S)NC(=O)c4cc(OC)cc(OC)c4)CC3)cc21`, the pIC50 was 3.84. Regarding `O=c1cc(-c2ccccc2)cc(-c2ccccc2)n1O`, the pIC50 is 4.49.

`OC(CNCc1ccco1)Cn1c2ccc(Br)cc2c2cc(Br)ccc21` (stereo not drawn): the pIC50 was 4.72.

Consider `Cc1cc2nc(C3CCN(CC4COc5ccccc5O4)CC3)[nH]c2cc1C` (stereo not drawn), for which the pIC50 is 4.71.

On to `CCN1CCN(CCCNC(=O)c2ccc(/C=C3/Sc4ccccc4N(Cc4ccccc4F)C3=O)cc2)CC1`, for which the pIC50 is 4.07. Consider `CC(NCc1ccccc1O)C12CC3CC(CC(C3)C1)C2` (stereo not drawn), for which the pIC50 is 4.47. Consider `Cc1cc(C)c(NC(=O)C[N+](C)(C)CC(O)COc2cccc3ccccc23)c(C)c1` (stereo not drawn), for which the pIC50 is 4.20. On to `O=C(NNc1nc2ccc(F)cc2s1)c1cccc(F)c1`, for which the negative-log IC50 (pIC50) was 4.33. Turning to `O=C(Cn1nc(C(F)F)cc1C(F)F)NNC(=S)Nc1ccc([N+](=O)[O-])cc1`, the pIC50 was 4.16. For `CCn1cc(C(=O)O)c(=O)c2cc(F)c(N3CCN(C(=S)NC(=O)c4ccccc4C)CC3)cc21` the value was 4.31; for `COC12C(COC(N)=O)C3=C(C(=O)C(C)=C(N)C3=O)N1CC1C2N1C` (stereo not drawn), 5.51; for `N/C(=N\N=C/c1ccc(F)cc1)N/N=C\c1ccc(F)cc1`, 4.41. Then `Oc1c(Br)cc(Br)cc1C=NCc1ccc(F)cc1`, with 4.34. Regarding `O=C(Nc1nnc(-c2cccs2)o1)c1cccc(C(F)(F)F)c1`, the pIC50 is 4.58.

Take `O=C(CCN1CCN(c2ccccc2F)CC1)c1ccc(Br)cc1`: the pIC50 is 4.43. On to `Oc1ccc(Cl)cc1Cc1cc(Cl)ccc1O`, for which the pIC50 was 4.56.

Turning to `C[C@@H](NC(=O)/C(C#N)=C/c1ccc(O)c(O)c1)c1ccccc1`, the pIC50 is 4.07. Consider `O=[N+]([O-])c1ccc(O)c(/C=N/Nc2ccccn2)c1`, for which the pIC50 was 5.03. For `COc1ccc(Cl)cc1C(=O)C1CCCN(CCO)C1` (stereo not drawn), the pIC50 was 4.25. For the compound `O=C(CCC(=O)Nc1ccc(Cl)cc1Cl)N/N=C/c1ccc([N+](=O)[O-])o1`, the negative logarithm of the IC50 (pIC50) was 4.54.

For `CCOC(=O)N/N=C(/C)c1ccc([N+](=O)[O-])o1`, the negative-log IC50 (pIC50) is 4.13.

Consider `c1ccc(Sc2cccc3ccccc23)c(CNC2=NCCN2)c1`, for which the pIC50 was 4.40. Then `Cc1cc(=O)[nH]c(-n2nc(C)cc2C)n1`, with 4.16; and `Oc1cccc2ccc(Nc3ccccn3)nc12`, with 5.13. For `CS(=O)(=O)c1ccc([C@@H](O)[C@@H](CF)NC(=O)C(Cl)Cl)cc1` the value was 5.29. For `O=C(c1ccc([N+](=O)[O-])o1)N1CCOCC1`, the negative logarithm of the IC50 (pIC50) was 4.09. Turning to `Cc1ccc(C)c(NC(=O)c2ccccc2O)c1`, the pIC50 was 4.24. With `Oc1cccc(C=NCc2ccccc2)c1O`, the pIC50 was 4.13. Regarding `NC1CCN(c2nc3c(cc2F)c(=O)c(C(=O)O)cn3-c2ccc(F)cc2F)C1` (stereo not drawn), the pIC50 is 5.82. In the case of `CCc1ccc2c(c1)Sc1ccccc1CC2N1CCN(C)CC1` (stereo not drawn), the pIC50 was 4.51.

For the compound `CN(C)CCOCCOc1ccc(Cl)c2ccccc12`, the pIC50 was 4.39.
